#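 96-well plates; 48 h exposure; 5 concentrations. Endpoints by linear interpolation between flanking doses. Not reached: highest tested concentration assigned. TGI is the concentration that stops growth completely.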
# Tests used:
# Experiment in all cases: DTP human tumour cell line panel, 48 h
# 786-0 renal = system: 786-0 renal
# A498 renal = system: A498 renal
# A549 NSCLC = system: A549 NSCLC
# ACHN renal = system: ACHN renal
# CAKI-1 renal = system: CAKI-1 renal
# CCRF-CEM leukemia = system: CCRF-CEM leukemia
# COLO 205 colon = system: COLO 205 colon
# DMS 273 small cell lung = system: DMS 273 small cell lung
# EKVX NSCLC = system: EKVX NSCLC
# HCC-2998 colon = system: HCC-2998 colon
# HCT-116 colon = system: HCT-116 colon
# HCT-15 colon = system: HCT-15 colon
# HL-60(TB) leukemia = system: HL-60(TB) leukemia
# HOP-62 NSCLC = system: HOP-62 NSCLC
# HT29 colon = system: HT29 colon
# K-562 leukemia = system: K-562 leukemia
# KM12 colon = system: KM12 colon
# KM20L2 colon = system: KM20L2 colon
# LXFL 529 NSCLC = system: LXFL 529 NSCLC
# M14 melanoma = system: M14 melanoma
# M19-MEL melanoma = system: M19-MEL melanoma
# MALME-3M melanoma = system: MALME-3M melanoma
# MOLT-4 leukemia = system: MOLT-4 leukemia
# NCI-H226 lung = system: NCI-H226 lung
# NCI-H460 lung = system: NCI-H460 lung
# NCI-H522 lung = system: NCI-H522 lung
# OVCAR-3 ovarian = system: OVCAR-3 ovarian
# OVCAR-4 ovarian = system: OVCAR-4 ovarian
# OVCAR-5 ovarian = system: OVCAR-5 ovarian
# OVCAR-8 ovarian = system: OVCAR-8 ovarian
# RPMI-8226 leukemia = system: RPMI-8226 leukemia
# RXF 393 renal = system: RXF 393 renal
# SF-268 CNS = system: SF-268 CNS
# SF-295 CNS = system: SF-295 CNS
# SK-MEL-2 melanoma = system: SK-MEL-2 melanoma
# SK-MEL-28 melanoma = system: SK-MEL-28 melanoma
# SK-OV-3 ovarian = system: SK-OV-3 ovarian
# SN12C renal = system: SN12C renal
# SNB-19 CNS = system: SNB-19 CNS
# SNB-75 CNS = system: SNB-75 CNS
# SNB-78 CNS = system: SNB-78 CNS
# SR leukemia = system: SR leukemia
# SW-620 colon = system: SW-620 colon
# TK-10 renal = system: TK-10 renal
# U251 CNS = system: U251 CNS
# UACC-257 melanoma = system: UACC-257 melanoma
# UACC-62 melanoma = system: UACC-62 melanoma
# UO-31 renal = system: UO-31 renal
# XF 498 CNS = system: XF 498 CNS
# DLD-1 colon = system: DLD-1 colon
# DMS 114 small cell lung = system: DMS 114 small cell lung
# HOP-18 NSCLC = system: HOP-18 NSCLC
# HOP-92 NSCLC = system: HOP-92 NSCLC
# IGROV1 ovarian = system: IGROV1 ovarian
# LOX IMVI melanoma = system: LOX IMVI melanoma
# NCI-H23 lung = system: NCI-H23 lung
# SF-539 CNS = system: SF-539 CNS
# SK-MEL-5 melanoma = system: SK-MEL-5 melanoma
compound,measurement,setting,value
Cc1ccc(/C=C/C(=O)c2cccc3ccccc23)cc1,TGI,786-0 renal,28.2 µM
same,TGI,A498 renal,27.4 µM
same,TGI,A549 NSCLC,43.2 µM
same,TGI,ACHN renal,30.7 µM
same,TGI,CAKI-1 renal,32.8 µM
same,TGI,CCRF-CEM leukemia,67 µM
same,TGI,COLO 205 colon,56.4 µM
same,TGI,DMS 273 small cell lung,47.2 µM
same,TGI,EKVX NSCLC,34 µM
same,TGI,HCC-2998 colon,37.7 µM
same,TGI,HCT-116 colon,24.6 µM
same,TGI,HCT-15 colon,35.3 µM
same,TGI,HL-60(TB) leukemia,28.3 µM
same,TGI,HOP-62 NSCLC,37.7 µM
same,TGI,HT29 colon,43.4 µM
same,TGI,K-562 leukemia,44.3 µM
same,TGI,KM12 colon,27.9 µM
same,TGI,KM20L2 colon,31 µM
same,TGI,LXFL 529 NSCLC,25.3 µM
same,TGI,M14 melanoma,39.5 µM
same,TGI,M19-MEL melanoma,49.9 µM
same,TGI,MALME-3M melanoma,28.6 µM
same,TGI,MOLT-4 leukemia,67.6 µM
same,TGI,NCI-H226 lung,34.3 µM
same,TGI,NCI-H460 lung,30.7 µM
same,TGI,NCI-H522 lung,34.2 µM
same,TGI,OVCAR-3 ovarian,31.7 µM
same,TGI,OVCAR-4 ovarian,28 µM
same,TGI,OVCAR-5 ovarian,27.5 µM
same,TGI,OVCAR-8 ovarian,29 µM
same,TGI,RPMI-8226 leukemia,> 100 µM
same,TGI,RXF 393 renal,26.2 µM
same,TGI,SF-268 CNS,33.1 µM
same,TGI,SF-295 CNS,31.7 µM
same,TGI,SK-MEL-2 melanoma,32.6 µM
same,TGI,SK-MEL-28 melanoma,35.4 µM
same,TGI,SK-OV-3 ovarian,62.5 µM
same,TGI,SN12C renal,27.4 µM
same,TGI,SNB-19 CNS,29.6 µM
same,TGI,SNB-75 CNS,34.6 µM
same,TGI,SNB-78 CNS,31.4 µM
same,TGI,SR leukemia,78.2 µM
same,TGI,SW-620 colon,26.2 µM
same,TGI,TK-10 renal,28.5 µM
same,TGI,U251 CNS,25.6 µM
same,TGI,UACC-257 melanoma,33.7 µM
same,TGI,UACC-62 melanoma,33.7 µM
same,TGI,UO-31 renal,39.7 µM
same,TGI,XF 498 CNS,28.7 µM
O=c1c(-c2ccccc2)c2oc(c1-c1ccccc1)CSCc1cccc(c1)CSC2,TGI,786-0 renal,89.8 µM
same,TGI,A498 renal,69.6 µM
same,TGI,A549 NSCLC,> 100 µM
same,TGI,ACHN renal,> 100 µM
same,TGI,CAKI-1 renal,> 100 µM
same,TGI,CCRF-CEM leukemia,> 100 µM
same,TGI,COLO 205 colon,> 100 µM
same,TGI,DLD-1 colon,> 100 µM
same,TGI,DMS 114 small cell lung,> 100 µM
same,TGI,DMS 273 small cell lung,> 100 µM
same,TGI,EKVX NSCLC,> 100 µM
same,TGI,HCC-2998 colon,> 100 µM
same,TGI,HCT-116 colon,> 100 µM
same,TGI,HCT-15 colon,> 100 µM
same,TGI,HL-60(TB) leukemia,> 100 µM
same,TGI,HOP-18 NSCLC,> 100 µM
same,TGI,HOP-62 NSCLC,62.4 µM
same,TGI,HOP-92 NSCLC,> 100 µM
same,TGI,HT29 colon,> 100 µM
same,TGI,IGROV1 ovarian,> 100 µM
same,TGI,K-562 leukemia,> 100 µM
same,TGI,KM12 colon,> 100 µM
same,TGI,KM20L2 colon,> 100 µM
same,TGI,LOX IMVI melanoma,> 100 µM
same,TGI,LXFL 529 NSCLC,> 100 µM
same,TGI,M14 melanoma,> 100 µM
same,TGI,M19-MEL melanoma,> 100 µM
same,TGI,MALME-3M melanoma,> 100 µM
same,TGI,MOLT-4 leukemia,> 100 µM
same,TGI,NCI-H226 lung,> 100 µM
same,TGI,NCI-H23 lung,> 100 µM
same,TGI,NCI-H460 lung,> 100 µM
same,TGI,NCI-H522 lung,> 100 µM
same,TGI,OVCAR-3 ovarian,77 µM
same,TGI,OVCAR-4 ovarian,> 100 µM
same,TGI,OVCAR-5 ovarian,> 100 µM
same,TGI,OVCAR-8 ovarian,> 100 µM
same,TGI,RPMI-8226 leukemia,> 100 µM
same,TGI,RXF 393 renal,50.7 µM
same,TGI,SF-268 CNS,85.2 µM
same,TGI,SF-295 CNS,> 100 µM
same,TGI,SF-539 CNS,60.4 µM
same,TGI,SK-MEL-2 melanoma,> 100 µM
same,TGI,SK-MEL-28 melanoma,87.4 µM
same,TGI,SK-MEL-5 melanoma,> 100 µM
same,TGI,SK-OV-3 ovarian,70.1 µM
same,TGI,SN12C renal,> 100 µM
same,TGI,SNB-19 CNS,> 100 µM
same,TGI,SNB-75 CNS,69.1 µM
same,TGI,SNB-78 CNS,> 100 µM
same,TGI,SW-620 colon,> 100 µM
same,TGI,TK-10 renal,> 100 µM
same,TGI,U251 CNS,88.2 µM
same,TGI,UACC-257 melanoma,> 100 µM
same,TGI,UACC-62 melanoma,> 100 µM
same,TGI,UO-31 renal,> 100 µM
C=CC[C@H](C[C@H](C[C@H](C[C@H](C[C@H](C[C@H](C[C@H](C[C@H](C[C@H](C[C@H](CCCCC)OC)OC)OC)OC)OC)OC)OC)OC)OC)OC,TGI,786-0 renal,> 100 µM
same,TGI,A498 renal,> 100 µM
same,TGI,A549 NSCLC,> 100 µM
same,TGI,ACHN renal,> 100 µM
same,TGI,CAKI-1 renal,> 100 µM
same,TGI,CCRF-CEM leukemia,> 100 µM
same,TGI,COLO 205 colon,> 100 µM
same,TGI,DLD-1 colon,> 100 µM
same,TGI,DMS 114 small cell lung,> 100 µM
same,TGI,DMS 273 small cell lung,> 100 µM
same,TGI,EKVX NSCLC,> 100 µM
same,TGI,HCC-2998 colon,> 100 µM
same,TGI,HCT-116 colon,> 100 µM
same,TGI,HL-60(TB) leukemia,> 100 µM
same,TGI,HOP-18 NSCLC,> 100 µM
same,TGI,HOP-62 NSCLC,> 100 µM
same,TGI,HOP-92 NSCLC,> 100 µM
same,TGI,HT29 colon,> 100 µM
same,TGI,IGROV1 ovarian,> 100 µM
same,TGI,K-562 leukemia,> 100 µM
same,TGI,KM12 colon,> 100 µM
same,TGI,KM20L2 colon,> 100 µM
same,TGI,LOX IMVI melanoma,> 100 µM
same,TGI,M14 melanoma,> 100 µM
same,TGI,M19-MEL melanoma,> 100 µM
same,TGI,MALME-3M melanoma,> 100 µM
same,TGI,MOLT-4 leukemia,> 100 µM
same,TGI,NCI-H226 lung,> 100 µM
same,TGI,NCI-H23 lung,> 100 µM
same,TGI,NCI-H460 lung,> 100 µM
same,TGI,NCI-H522 lung,> 100 µM
same,TGI,OVCAR-3 ovarian,> 100 µM
same,TGI,OVCAR-4 ovarian,> 100 µM
same,TGI,OVCAR-5 ovarian,> 100 µM
same,TGI,OVCAR-8 ovarian,> 100 µM
same,TGI,RPMI-8226 leukemia,> 100 µM
same,TGI,RXF 393 renal,> 100 µM
same,TGI,SF-268 CNS,> 100 µM
same,TGI,SF-295 CNS,> 100 µM
same,TGI,SF-539 CNS,> 100 µM
same,TGI,SK-MEL-2 melanoma,> 100 µM
same,TGI,SK-MEL-28 melanoma,> 100 µM
same,TGI,SK-MEL-5 melanoma,> 100 µM
same,TGI,SK-OV-3 ovarian,> 100 µM
same,TGI,SN12C renal,> 100 µM
same,TGI,SNB-19 CNS,> 100 µM
same,TGI,SNB-75 CNS,> 100 µM
same,TGI,SNB-78 CNS,> 100 µM
same,TGI,SR leukemia,> 100 µM
same,TGI,SW-620 colon,> 100 µM
same,TGI,TK-10 renal,> 100 µM
same,TGI,U251 CNS,> 100 µM
same,TGI,UACC-257 melanoma,> 100 µM
same,TGI,UACC-62 melanoma,> 100 µM
same,TGI,UO-31 renal,> 100 µM
same,TGI,XF 498 CNS,> 100 µM
NC(=O)c1ccccc1NC(=O)C(=O)C(C(=O)c1ccc(Cl)c(Cl)c1)C1OC(=O)c2ccccc21 (stereo unspecified),TGI,786-0 renal,> 100 µM
same,TGI,A498 renal,> 100 µM
same,TGI,A549 NSCLC,> 100 µM
same,TGI,ACHN renal,> 100 µM
same,TGI,CAKI-1 renal,> 100 µM
same,TGI,CCRF-CEM leukemia,> 100 µM
same,TGI,COLO 205 colon,> 100 µM
same,TGI,DLD-1 colon,> 100 µM
same,TGI,DMS 273 small cell lung,> 100 µM
same,TGI,EKVX NSCLC,> 100 µM
same,TGI,HCC-2998 colon,> 100 µM
same,TGI,HCT-116 colon,39 µM
same,TGI,HCT-15 colon,> 100 µM
same,TGI,HL-60(TB) leukemia,> 100 µM
same,TGI,HOP-18 NSCLC,> 100 µM
same,TGI,HOP-62 NSCLC,> 100 µM
same,TGI,HOP-92 NSCLC,> 100 µM
same,TGI,HT29 colon,> 100 µM
same,TGI,IGROV1 ovarian,> 100 µM
same,TGI,K-562 leukemia,> 100 µM
same,TGI,KM12 colon,> 100 µM
same,TGI,KM20L2 colon,> 100 µM
same,TGI,LXFL 529 NSCLC,> 100 µM
same,TGI,M14 melanoma,> 100 µM
same,TGI,MALME-3M melanoma,80.4 µM
same,TGI,MOLT-4 leukemia,> 100 µM
same,TGI,NCI-H226 lung,56.3 µM
same,TGI,NCI-H23 lung,> 100 µM
same,TGI,OVCAR-3 ovarian,> 100 µM
same,TGI,OVCAR-4 ovarian,> 100 µM
same,TGI,OVCAR-5 ovarian,> 100 µM
same,TGI,OVCAR-8 ovarian,> 100 µM
same,TGI,RPMI-8226 leukemia,> 100 µM
same,TGI,RXF 393 renal,45.7 µM
same,TGI,SF-268 CNS,> 100 µM
same,TGI,SN12C renal,> 100 µM
same,TGI,SNB-19 CNS,> 100 µM
same,TGI,SNB-75 CNS,83.2 µM
same,TGI,SNB-78 CNS,> 100 µM
same,TGI,SR leukemia,> 100 µM
same,TGI,SW-620 colon,> 100 µM
same,TGI,U251 CNS,> 100 µM
same,TGI,UACC-257 melanoma,> 100 µM
same,TGI,UACC-62 melanoma,> 100 µM
same,TGI,XF 498 CNS,> 100 µM

# Source: PubChem BioAssay (NCI)
